Test results reported in patent US8778974B2, “Trisubstituted 1,2,4 triazoles” (Janssen Pharmaceutica NV, priority 2008, dated 2014).

Tests used:
[1] = biological target: T1, hα7-wt nAChR-expressing GH4Cl cells (Homo sapiens, UniProt P36544); assay: Patch-clamp current recording (whole-cell), potentiation of choline 1 mM response, PAM type; type: cell-based; parameters: key to Pam type: Type 0 compounds minimally enhance the effect size of the current elicited by 1 mM choline.; Type 1 compounds enhance the effect size of the current elicited by 1 mM choline but minimally alter the kinetics of the receptor.; Type 2 compounds enhance the effect size of the current elicited by 1 mM choline while reducing the rate and/or the extent of desensitization.; Type 3 compounds enhance the effect size of the current elicited by 1 mM choline. When tested at higher concentrations up to 10 μM they completely inhibit desensitization, in particular a 1 mM choline application of 250 milliseconds.; Type 4 compounds allow for an initial desensitization of the receptor followed by a re-opening of the receptor during agonist application; details: for EC50: according to Ex. D.2, "<5" = no top plateau reached at maximal concentration, read-out: Potency (pEC50) (converted); for Pam type: patch-clamp current recording, 1 mM choline
T1 construct: expressed in transfected cells
Description: The compounds of the present invention are classified as type 1-4, based on qualitative kinetic properties, as determined by whole-cell voltage-clamp recordings. This classification is based on the effect of an α7 PAM compound, as described hereinbefore, on the signal elicited by an agonist application. In particular, said agonist is choline at a concentration of 1 mM. In a preferred experimental setting, said α7 PAM compound and choline are simultaneously applied to the cell, as described hereinafter. Desensitization is defined as the closure of the receptor upon activation during the application of the agonist in whole-cell voltage-clamp electrophysiology measurements seen as the reduction of the […] current after initial activation by the agonist.
The definition of the PAM types 1-4 is described hereinafter: • Type 0 compounds minimally enhance the effect size of the current elicited by 1 mM choline. • Type 1 compounds enhance the effect size of the current elicited by 1 mM choline but minimally alter the kinetics of the receptor. In particular, the rate and the extent of desensitization, elicited by the agonist, is not affected. The compound-modulated response to 1 mM choline, therefore, is a close to linear scaling of the 1 mM choline response in absence of the α7 PAM compound. • Type 2 compounds enhance the effect size of the current elicited by 1 mM choline while reducing the rate and/or the extent of desensitization. • Type 3 compounds enhance the effect size of the current elicited by 1 mM choline. […] At low-potency concentrations of the α7 PAM compound, the agonist-induced activation, which is followed by desensitization, can still be separated from the compound-induced re-opening as an initial inward current-maximum. At higher potency concentrations of the α7 PAM compound, the re-opening occurs faster than the closure due to desensitization so that the initial current-maximum disappears.
Patch-clamp Current Recording
Patch-clamp recording from mammalian cells has provided a powerful means of assessing the function of membrane-bound proteins thought to be subunits of ligand-gated ion channels. Activation of such proteins by endogenous or exogenous ligands cause opening of a pore associated with the receptor through which ions flow down their electrochemical gradient. In the case of the hα7-wt nAChR-expressing GH4Cl recombinant cell line the preferential permeability to calcium of this receptor means that calcium flows into the cell upon activation by ACh, choline and other nicotinic ligands giving rise to a calcium current. Since this receptor rapidly desensitizes in the presence of agonist it is important an application system is used which is capable of very rapid switching of solutions (<100 ms) to prevent partial or full desensitisation of receptor responses coincident with the time of agonist application. Consequently, a second convenient technique to assess the enhancement of nicotinic efficacy is patch-clamp recording from hα7-wt nAChR-expressing GH4Cl cells coupled with a rapid-application system.
• a) Assay buffers • The external recording solution consisted of 152 mM NaCl, 5 mM KCl, 1 mM MgCl2, 1 mM Calcium, 10 mM HEPES; pH 7.3. The internal recording solution consisted of 140 mM CsCl, 10 mM HEPES, 10 mM EGTA, 1 mM MgCl2, pH 7.3. • b) Patch-clamp recording was carried out using a Patch-clamp amplifier (Multiclamp 700A, Axon Instruments, Calif., USA). hα7-wt nAChR-expressing GH4Cl cells were patch-clamp in the whole cell configuration (Hamill et al, 1981) with a borosilicate glass electrode of 1.5-3 MΩ tip resistance when filled with the internal recording solution. Recordings were made on cells with membrane resistance >500 MΩ and more preferably 1GΩ and series resistance <15 MΩ with at least 60% series resistance compensation. […]

T1 sequence (P36544 23-502): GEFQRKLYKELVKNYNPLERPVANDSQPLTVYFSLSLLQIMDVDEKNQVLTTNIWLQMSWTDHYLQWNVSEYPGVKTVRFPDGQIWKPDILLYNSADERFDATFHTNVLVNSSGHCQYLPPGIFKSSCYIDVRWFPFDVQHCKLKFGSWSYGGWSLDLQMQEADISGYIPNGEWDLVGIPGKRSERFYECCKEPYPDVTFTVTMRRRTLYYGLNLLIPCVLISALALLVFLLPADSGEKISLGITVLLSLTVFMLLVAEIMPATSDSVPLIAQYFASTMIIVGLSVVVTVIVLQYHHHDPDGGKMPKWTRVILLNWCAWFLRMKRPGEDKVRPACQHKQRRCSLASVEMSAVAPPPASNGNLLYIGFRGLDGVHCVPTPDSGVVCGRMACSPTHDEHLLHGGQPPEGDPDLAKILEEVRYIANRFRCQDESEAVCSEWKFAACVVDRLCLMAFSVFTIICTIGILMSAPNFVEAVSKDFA

SMILES | melting point | EC50 [1] | Pam type [1]
COc1ncccc1-n1nc(Nc2cccc(OC(F)(F)F)c2)nc1CCC(=O)N(C)C [E4, 1-(2-Methoxy-3-pyridinyl)-N,N-dimethyl-3-[[3-(trifluoromethoxy)phenyl]amino]-1H-1,2,4-triazole-5-propanamide] | 166.7 °C | 3.8 µM | –
CNc1ncccc1-n1nc(Nc2cccc(OC(F)(F)F)c2)nc1CCC(=O)N(C)C [E6, N,N-Dimethyl-1-[2-(methylamino)-3-pyridinyl]-3-[[3-(trifluoromethoxy)phenyl]amino]-1H-1,2,4-triazole-5-propanamide] | 212.8 °C | 0.851 µM | –
Cc1cc(-n2nc(Nc3ccc(F)c(C(F)(F)F)c3)nc2CCCO)ccn1 [E7, 3-[[4-Fluoro-3-(trifluoromethyl)phenyl]amino]-1-(2-methyl-4-pyridinyl)-1H-1,2,4-triazole-5-propanol] | 197.6 °C | 1 µM | 2
Cc1cc(-n2nc(Nc3ccc(F)c(C(F)(F)F)c3)nc2CCCF)ccn1 [E8, 5-(3-Fluoropropyl)-N-[4-fluoro-3-(trifluoromethyl)phenyl]-1-(2-methyl-4-pyridinyl)-1H-1,2,4-triazol-3-amine] | 191.5 °C | 0.513 µM | 0
Cc1cc(-n2nc(Nc3ccc(F)c(C(F)(F)F)c3)nc2CCCCl)ccn1 [E9, 5-(3-chloropropyl)-N-[4-fluoro-3-(trifluoromethyl)phenyl]-1-(2-methyl-4-pyridinyl)-1H-1,2,4-triazol-3-amine] | 182.8 °C | 0.437 µM | –
Cc1cc(-n2nc(Nc3ccc(F)c(C(F)(F)F)c3)nc2CC(C)O)ccn1 (stereo not drawn) [E10, 3-[[4-Fluoro-3-(trifluoromethyl)phenyl]amino]-alpha-methyl-1-(2-methyl-4-pyridinyl)-, (alphaS)-1H-1,2,4-triazole-5-ethanol] | 192.7 °C | 1.05 µM | 2
COCCCc1nc(Nc2ccc(F)c(C(F)(F)F)c2)nn1-c1ccncc1Cl [E12, 1-(3-Chloro-4-pyridinyl)-N-[4-fluoro-3-(trifluoromethyl)phenyl]-5-(3-methoxypropyl)-1H-1,2,4-triazol-3-amine] | 105.3 °C | 2.24 µM | –
COCCc1nc(Nc2ccc(F)c(C(F)(F)F)c2)nn1-c1ccnc(C)c1 [E13] | 170.4 °C | 0.24 µM | 0
OCCCc1nc(Nc2ccc(F)c(C(F)(F)F)c2)nn1-c1ccncc1Cl [E14] | 152.9 °C | 3.98 µM | –
COCCCc1nc(Nc2ccc(F)c(C(F)(F)F)c2)nn1-c1ccnc(C)c1 [E15] | 141.4 °C | 0.11 µM | 0
C[C@H](O)Cc1nc(Nc2ccc(F)c(F)c2)nn1-c1cccc(F)c1 [E17] | 177.1 °C | 3.55 µM | –
C[C@H](O)Cc1nc(Nc2ccc(F)c(C(F)(F)F)c2)nn1-c1cccc(F)c1 [E18] | 161 °C | 3.31 µM | –
C[C@H](O)Cc1nc(Nc2ccc(F)c(C(F)(F)F)c2)nn1-c1ccc(F)cc1 [E20] | 170.4 °C | 4.47 µM | –
COc1ccc(-n2nc(Nc3ccc(F)c(F)c3)nc2C[C@H](C)O)cc1 [E21] | 181.4 °C | 1.78 µM | 1
CNC(=O)Cc1nc(Nc2ccc(F)c(F)c2F)nn1-c1cc(C)nc(C)c1 [E209] | – | 0.724 µM | 2
Cc1cc(-n2nc(Nc3cc(F)c(F)c(F)c3)nc2CCC(=O)N(C)C)cc(C)n1 [E264] | – | ~0.0288 µM | –

Now from value to molecule, other results behind:

melting point | SMILES | EC50 [1] | Pam type [1]
188.7 °C | COc1ccc(-n2nc(Nc3ccc(F)c(C(F)(F)F)c3)nc2C[C@H](C)O)cc1 [E22] | 0.851 µM | 0
185 °C | Cc1cc(-n2nc(Nc3cccc(Cl)c3)nc2C[C@H](C)O)ccn1 [E23] | 2.19 µM | –
150.3 °C | C[C@H](O)Cc1nc(Nc2ccc(F)c(C(F)(F)F)c2)nn1-c1ccncc1Cl [E25] | 4.79 µM | 2
158.1 °C | CC[C@H](O)Cc1nc(Nc2ccc(F)c(F)c2)nn1-c1cccc(F)c1 [E27] | 1.91 µM | 1
157.3 °C | CC[C@H](O)Cc1nc(Nc2ccc(F)c(F)c2)nn1-c1ccc(F)cc1 [E28] | 1.91 µM | 1
117.6 °C | CC[C@H](O)Cc1nc(Nc2ccc(F)c(F)c2)nn1-c1ccc(OC)cc1 [E29] | 1.15 µM | 1
171.1 °C | CC[C@H](O)Cc1nc(Nc2ccc(F)c(F)c2)nn1-c1ccnc(C)c1 [E30] | 0.676 µM | 2
181.9 °C | Cc1cc(-n2nc(Nc3ccc(F)c(C(F)(F)F)c3)nc2C(C)CO)ccn1 (centres unmarked) [E31] | 2.24 µM | 2
272.9 °C | CNC(=O)Cc1nc(Nc2ccc(F)c(C(F)(F)F)c2)nn1-c1ccnc(C)c1 [E35] | 1.17 µM | 3
170.9 °C | CNC(=O)CCc1nc(Nc2ccc(F)c(C(F)(F)F)c2)nn1-c1cccc(OC)c1 [E42] | 2.75 µM | –
153.7 °C | CNC(=O)CCc1nc(Nc2cccc(OC(F)(F)F)c2)nn1-c1ccnc(C)c1 [E54] | 2.29 µM | 2
179.6 °C | CN(C)C(=O)CCc1nc(Nc2ccc(F)c(F)c2)nn1-c1ccccc1Cl [E57] | 1.07 µM | 3
165.4 °C | CN(C)C(=O)CCc1nc(Nc2ccc(F)c(F)c2)nn1-c1cccc(Cl)c1 [E58] | 0.339 µM | –
145.1 °C | CN(C)C(=O)CCc1nc(Nc2ccc(F)c(F)c2)nn1-c1ccc(Cl)cc1 [E59] | 0.245 µM | 4
133.5 °C | COc1cccc(-n2nc(Nc3cccc(OC(F)(F)F)c3)nc2CCC(=O)N(C)C)c1 [E60] | 0.282 µM | 0
173.6 °C | COc1cccc(-n2nc(Nc3ccc(F)c(C(F)(F)F)c3)nc2CCC(=O)N(C)C)c1 [E61] | 0.0851 µM | –
215.4 °C | Cc1cc(-n2nc(Nc3cccc(OC(F)(F)F)c3)nc2CCC(=O)N(C)C)ccn1 [E73] | 0.135 µM | 4
181.7 °C | CN(C)C(=O)CCc1nc(Nc2ccc(F)c(C(F)(F)F)c2)nn1-c1ccncc1Cl [E74] | 0.0724 µM | 4
174.3 °C | Cc1ccc(-n2nc(Nc3cccc(OC(F)(F)F)c3)nc2CCC(=O)N(C)C)cn1 [E75] | 0.186 µM | 4
145.7 °C | CN(C)C(=O)CCc1nc(Nc2cccc(OC(F)(F)F)c2)nn1-c1cccnc1Cl [E76] | 0.407 µM | –
151.7 °C | Cc1ncccc1-n1nc(Nc2ccc3c(c2)OC(F)(F)O3)nc1CCC(=O)N(C)C [E116] | 2.95 µM | –
244.4 °C | Cc1cc(-n2nc(Nc3cccc(C(F)(F)F)c3F)nc2CC(=O)NC2CC2)cc(C)n1 [E257, N-Cyclopropyl-1-(2,6-dimethyl-4-pyridinyl)-3-[[2-fluoro-3-(trifluoromethyl)phenyl]amino]-1H-1,2,4-triazole-5-acetamide] | – | –
